The series in a line: Solubility / dissolution in water and solid form stability of caspofungin propionate. The series is classed as physicochemical.

The structures appear in SMILES notation. A value given as a limit tells only on which side of the number the result lay.

In the case of `CCC(C)CC(C)CCCCCCCCC(=O)N[C@H]1C[C@@H](O)[C@@H](NCCN)NC(=O)[C@@H]2[C@@H](O)CCN2C(=O)[C@H]([C@H](O)CCN)NC(=O)[C@H]([C@H](O)[C@@H](O)c2ccc(O)cc2)NC(=O)[C@@H]2C[C@@H](O)CN2C(=O)[C@H]([C@@H](C)O)NC1=O` (stereo partly drawn) [Caspofungin dipropionate, caspofungin dipropionate], the time to dissolve (533.5 mg crystalline salt in 5 ml aqueous mannitol 40 mg/ml / sucrose 60 mg/ml) is not above 3 min. With `CCC(C)CC(C)CCCCCCCCC(=O)N[C@H]1C[C@@H](O)[C@@H](NCCN)NC(=O)[C@@H]2[C@@H](O)CCN2C(=O)[C@H]([C@H](O)CCN)NC(=O)[C@H]([C@H](O)[C@@H](O)c2ccc(O)cc2)NC(=O)[C@@H]2C[C@@H](O)CN2C(=O)[C@H]([C@@H](C)O)NC1=O` (stereo partly drawn) [Crystalline caspofungin propionate, caspofungin propionate], the solubility in water entry is given as “freely soluble in water”. Moreover, for the setting “crystalline versus amorphous form”, the “stability of solid form” value is “more stable than the amorphous form”.

The values are drawn from patent US8232245B2, “Caspofungin formulations” (Sandoz AG, priority 2006, dated 2012).
